Where two headings read alike, the source gives them in different places.
Tests used:
[1] = system: amyloid accumulation in H4 cells; assay: H4 cell amyloid accumulation (6E10 antibody, HRP/OPD absorbance); type: cell-based, human
[2] = system: H4 cells (human neuroblastoma cell line)
[3] = system: L929 immortalised fibroblast cell line; assay: MTT colorimetric toxicity assay in L929 fibroblast cell line; type: cell-based; details: L929, 0.3 nM to 1 μM, up to 24 h exposure
Experimental: A first assessment of the potential toxicity of the substituted phosphonates was carried out in a non-neuronal cell line, using a tetrazolium salt (MTT) colorimetric assay, based on the method described by Mossman (1983), which gives a reflection of mitochondrial activity and cell integrity. The MTT [3-(4,5-dimethylthiazol-2-yl)-2,5-diphenyltetrazolium bromide] assay is based on the ability of a mitochondrial dehydrogenase enzyme from viable cells to cleave the tetrazolium rings of the pale yellow MTT and form dark blue formazan crystals which cannot cross cell membranes. The result is that healthy cells will accumulate more of the blue formazan crystals. […] They were then incubated for 2 h after addition of MTT (1 mg/ml) and the absorbance was read at 570 nm. […] The toxicity of the reference compound clioquinol (0.3 nM to 1 μM) was assessed under the same conditions, for comparison.
A first assessment of toxicity of the substituted phosphonates was carried out in a non-neuronal cell line, using a tetrazolium salt (MTT) colorimetric assay, based on the method described by Mossman (1983), which gives a reflection of mitochondrial activity and cell integrity (FIGS. 6 and 7). The toxicity of the reference compound clioquinol (0.3 nM to 1 μM) was assessed under the same conditions, for comparison.

[4] = system: intracellular amyloid in H4 cells; assay: intracellular distribution of amyloid in H4 cells (6E10 immunofluorescence); type: cell-based, human; details: 1 μM, 5 days incubation, single dose
β-amyloid plaques = system: β-amyloid plaques; parameters: species or system APP and APP/Tau transgenic mice; details: mouse, in vivo
[5] = H4 cells, 1 μM, average of 2-3 experiments

Row | Compound | amyloid reduction (% controls), 5 day repeated doses [1] [% controls] | amyloid reduction (% controls), 5 day single dose [1] [% controls] | cell survival (% controls), 5 day repeated doses [2] [% controls] | cell survival (% controls), 5 day single dose [2] [% controls] | toxicity as reflected in cell viability (MTT) [3] | accumulation of amyloid in H4 cells ([1]; 1 μM, 5 days) | amyloid reduction (% controls), 5 day repeated doses [1, 5] [% controls] | amyloid reduction (% controls), 5 day single dose [1, 5] [% controls] | intracellular amyloid labelling in H4 cells [4] | amyloid plaque load in brain (β-amyloid plaques) | cell survival (% controls), 5 day repeated doses ([2]; 5 days, 1 μM) [% controls] | cell survival (% controls), 5 day single dose ([2]; 5 days, 1 μM) [% controls] | reduction of cell viability [2] [%]
1 | CCOP(=O)(COc1ccccc1-c1nc2ccccc2s1)OCC [Compound 14, Diethyl 2-(2-benzthiazolyl)phenoxymethylphosphonate] | 83 | 100 | 110 | 100 |  |  |  |  |  |  |  |  | 
2 | Oc1c(I)cc(Cl)c2cccnc12 [Clioquinol, reference compound] |  |  |  |  | neither clioquinol nor any of the substituted phosphonates screened showed any toxicity | decreases the accumulation of amyloid | 76 | 64 | reduced this intracellular accumulation in some of the cells, but brightly labelled areas could still be found | apparent decreased plaque load, and especially a reduced load of large aggregates | 96 | 99 | 
3 | CCOP(=O)(COc1ccc2c(c1)[nH]c1ccccc12)OCC [Compound 17, Diethyl-2-carbazolyloxymethylphosphonate] | 62 | 37 | 102 | 97 |  |  |  |  |  |  |  |  | 
4 | CCOP(=O)(COc1ccc(NC(C)=O)cc1)OCC [Compound 25, Diethyl 4-acetamidophenoxy methylphosphonate] | 62 | 24 | 97 | 98 |  |  |  |  |  |  |  |  | 
5 | O=P([O-])([O-])Cn1c2ccccc2c2ccccc21.[Na+].[Na+] [Compound 20, Disodium N-carbazolylmethylphosphonate] | 66 | 11 | 72 | 88 |  |  |  |  |  |  |  |  | 28
